The values below come from paper PMC3199867, “Targeting surface nucleolin with multivalent HB-19 and related Nucant pseudopeptides results in distinct inhibitory mechanisms depending on the malignant tumor cell type” (BMC Cancer, 2011).

Where no end group is shown, it is not given here.

In one data set the test system is HuT 78 cells. Briefly: Cell entry and localization of biotinylated pseudopeptides, immunofluorescence. Type of data set: cell-based, human. The settings on record: HuT 78, 15 μM, 37°C, 5 hours, PFA/Triton fixation, anti-biotin immunofluorescence. As for the experimental part:
Figure 8 Nucant pseudopeptides are internalized into cells and accumulate in the cytoplasm without translocation to the nucleus. […] C. […] The nuclei stained with DAPI are shown on the right of each panel. Treatment of HuT 78 cells at 15 μM of biotinylated N3 or N7 leads to 25 and 40% cell death after 24 of culture, respectively.

The subject of another data set is nucleophosmin. Put plainly: Binding of biotinylated Nucant to nucleophosmin on HuT 78 cells (avidin recovery, immunoblotting). Details: species or system human. Conditions: HuT 78 cells, 0, 1, 2, 4, 8 μM. As for the experimental part: (§1) Two days after seeding, subconfluent cells (about 5 × 10^6 cells/75 cm^2 flask) were incubated (45 min, 20°C) with 5 μM of HB-19/Btn. After washing extensively in PBS containing 1 mM EDTA (PBS-EDTA), nucleus-free cell extracts were prepared in lysis buffer E. The complex formed between cell-surface expressed nucleolin and HB-19/Btn was isolated by purification of the extracts using NeutrAvidin agarose (100 μl; Pierce Biotechnology) in PBS-EDTA. After 3 hours at 6°C, the avidin-agarose samples were washed extensively with PBS-EDTA. The purified surface nucleolin was eluted in the electrophoresis sample buffer containing SDS and analyzed by 10% SDS-polyacrylamide gel electrophoresis (SDS-PAGE). […] All cells investigated in this study (MDA-MB-231, MDA-MB-435, LNCaP, HeLa, SW480, SW620, and T29) expressed the cell surface nucleolin assayed by this procedure.
(§2) Figure 9 Nucant pseudopeptides bind surface nucleolin at a higher affinity compared to binding to nucleophosmin. A. Recovery of surface nucleolin and associated proteins by using biotinylated Nucant. […] Purified material was then analyzed by SDS-PAGE and stained with Brilliant Blue G-Colloidal Concentrate staining (panel Staining). Similar samples were also analyzed by immunoblotting using anti-nucleolin mAb D3 (panel anti-nucleolin) or anti-nucleophosmin mAb EP1848Y (panel anti-nucleophosmin)(Methods). […]

The subject of a further data set is HuT 78. Briefly: Cell death (trypan blue uptake). In kind it is cell-based, human. Conditions: HuT 78 cells, 15 μM, after 24 of culture. As for the experimental part:
Human breast (MDA-MB-231, MDA-MB-435 [37]), prostate (LNCaP, from American Type Culture Collection, ATCC, Rockville, MD), and cervical (HeLa) epithelial cancer cells were grown in DMEM-glutamax medium (Gibco Invitrogen, Cergy-Pontoise, France) containing GlutaMAX™, 4.5 g/l glucose and supplemented with 10% heat-inactivated (56°C for 30 min) fetal bovine serum (FBS; Hyclone, Thermo Fisher Scientific, Inc). Human SW480 cells are derived from a grade 3-4 colon carcinoma, while the highly metastatic counterpart SW620 is established from the lymph node of a person. Both SW480 and SW620 cells (obtained from Francis Raul, IRCAD) are highly tumorigenic in nude mice. They were cultured in D-MEM, 10% FCS. The murine melanoma TIII cell line was obtained from Armelle Prévost-Blondel. Murine T29 lymphoma cells, obtained from Philippe Kastner (CNRS, Strasbourg), have been established from Ik^L/L tumors from mice carrying a hypomorphic mutation (Ik^L/L) in the Ikaros gene encoding a transcription factor that regulates lymphocyte differentiation, and acts also as a tumor suppressor in T lymphocytes. The T29 cells were cultured in RPMI medium containing 25 mM Hepes pH 7.6, 1 mM sodium pyruvate, and 10% FCS. Human leukemia cell lines, Jurkat (acute T cell leukemia), HuT 78 (cutaneous T lymphocyte), RAJI (Burkitt lymphoma), and HL60 (promyelocytic leukemia) were cultured in RPMI-1640 medium (Gibco) containing GlutaMAX™, and supplemented with 10% heat-inactivated FBS as described before. The wild-type Chinese hamster ovary cell line (CHO K1) was purchased from American Type Culture Collection (ATCC; Rockville, MD). The CHO LRP1-null cell line (CHO-13-5-1) was kindly provided by D. Strickland [47]. They were cultured in Ham's F12K medium. All cells were cultured with 10% (v/v) heat inactivated (56°C, 30 min) fetal bovine serum (FBS) (Roche Molecular Biochemicals, Indianapolis, IN) and 50 international units/mL penicillin-streptomycin (Invitrogen). Cell death was monitored conveniently by uptake of the trypan blue dye due to plasma membrane permeability of dying and/or dead cells. […]

In data set [1] the test system is surface nucleolin. Put plainly: Binding of biotinylated Nucant to surface nucleolin on MDA-MB 231 cells (avidin recovery, immunoblotting). Conditions: data not presented. Details: species or system human. On the procedure: as §1, §2
Data set [2] concerns surface nucleolin. Briefly: Binding of biotinylated Nucant to surface nucleolin on HuT 78 cells (avidin recovery, immunoblotting). On the set-up: species or system human. Conditions: HuT 78 cells, 0, 1, 2, 4, 8 μM. As for the experimental part:
as §1, §2

For the substance “biotinylated N7: biotinylated hexavalent N7 pseudopeptide (chain 1 KAKPGKAKPGKAKPG; chain 2 Lys-Pro-Arg; also: biotinylated (site not given here), hexavalent branched pseudopeptide, linkage not given here)”, the “cell entry / intracellular localization” value in the data set with HuT 78 cells is “most of the signal is located in the cytoplasm, with almost no signal in the nuclei”. In addition, the “concentration at which nucleophosmin binding occurs” value in the data set with nucleophosmin came to 8 µM. The substance further gave a cell death in the data set with HuT 78 of 40%. The entries for the “concentration of maximum binding to surface nucleolin” value in the data set on surface nucleolin [1] and in the data set on surface nucleolin [2] were 3 µM and 4 µM, respectively.
